The values below come from ChEMBL document CHEMBL1151289, “Biosynthesis of ganefromycin: results from blocked mutants and bioconversion experiments” (1998).

Converted amounts (≈) assume the structure as drawn.

What is called MIC is the least concentration at which growth counts as inhibited. A low value points to greater potency.

The test system of this test is Priestia megaterium. As to the kind of experiment: Antimicrobial activity against Bacillus megaterium. Format: functional.
As for `C/C=C\C=C\[C@@H]1O[C@](O)([C@H](CO)C(=O)NC/C=C/C=C(\C)C(OC)C(C)C2CC(O)C(/C=C/C=C/C=C/C(=O)O)O2)[C@H](O)[C@H](O)C1(C)C` (stereo not given in full), the lowest concentration to inhibit growth (MIC) was 50 µg/mL (≈ 74 µM).
With `C/C=C\C=C\[C@@H]1O[C@](O)([C@H](CO[C@H]2C[C@H](OC)[C@H](O[C@@H]3C[C@@H](OC)[C@@H](O[C@H]4C[C@H](OC)[C@H](O)[C@H](C)O4)[C@H](C)O3)[C@H](C)O2)C(=O)NC/C=C/C=C(\C)C(OC)C(C)C2CC(O)C(/C=C/C=C/C=C/C(=O)O)O2)C[C@H](O)C1(C)C` (stereo not given in full), the lowest concentration to inhibit growth (MIC) was 6.3 µg/mL (≈ 5.77 µM).
`C/C=C\C=C\[C@@H]1O[C@](O)([C@H](C)C(=O)NC/C=C/C=C(\C)C(O)C(C)C2CC(O)C(/C=C/C=C/C=C/C(=O)O)O2)C[C@H](O)C1(C)C` (stereo not given in full) displayed an MIC above 100 µg/mL.
For `C/C=C\C=C\[C@@H]1O[C@](O)([C@H](C)C(=O)NC/C=C/C=C(\C)C(O)C(C)C2CC(O)C(/C=C/C=C/C=C/C(=O)O)O2)[C@H](O)[C@H](O)C1(C)C` (stereo not given in full), it took 100 µg/mL (≈ 155 µM) to inhibit growth (MIC).
Regarding `C/C=C\C=C\[C@@H]1O[C@](O)([C@H](CO[C@H]2C[C@H](O)[C@H](O)[C@H](C)O2)C(=O)NC/C=C/C=C(\C)C(OC)C(C)C2CC(O)C(/C=C/C=C/C=C/C(=O)O)O2)[C@H](OC(=O)Cc2ccccc2)[C@H](O)C1(C)C` (stereo not given in full), the MIC is 12.5 µg/mL (≈ 13.5 µM).
`C/C=C\C=C\[C@@H]1O[C@](O)([C@@H](C)C(=O)NC/C=C/C=C(\C)C(O)C(C)C2CC(O)C(/C=C/C=C/C=C/C(=O)O)O2)C[C@H](O)C1(C)C` (stereo not given in full) returned an MIC above 100 µg/mL.
Under `C/C=C\C=C\[C@@H]1O[C@](O)([C@H](CO[C@H]2C[C@H](OC)[C@H](O[C@@H]3C[C@@H](OC)[C@@H](O[C@H]4C[C@H](OC)[C@H](O)[C@H](C)O4)[C@H](C)O3)[C@H](C)O2)C(=O)NC/C=C/C=C(\C)C(OC)C(C)C(=O)CC(O)C/C=C/C=C/C=C/C(=O)O)C[C@H](O)C1(C)C` (stereo not given in full) stands 3.1 µg/mL (≈ 2.84 µM); under `C/C=C\C=C\[C@@H]1O[C@](O)([C@H](C)C(=O)NC/C=C/C=C(\C)C(OC)C(C)C2CC(O)C(/C=C/C=C/C=C/C(=O)O)O2)[C@H](OC(=O)Cc2ccccc2)[C@H](O)C1(C)C` (stereo not given in full), 12.5 µg/mL (≈ 16.1 µM); under `C/C=C\C=C\[C@@H]1O[C@](O)([C@@H](CO[C@@H]2O[C@@H](C)[C@@H](C)[C@@H](O[C@@H]3C[C@@H](OC)[C@@H](O)[C@H](C)O3)[C@H]2OC)C(=O)NC/C=C/C=C(\C)C(OC)C(C)C2CC(O)C(/C=C/C=C/C=C/C(=O)O)O2)C[C@H](O)C1(C)C` (stereo not given in full), 12.6 µg/mL (≈ 13.1 µM).
The compound `C/C=C\C=C\[C@@H]1O[C@](O)([C@H](C)C(=O)NC/C=C/C=C(\C)C(OC)C(C)C2CC(O)C(/C=C/C=C/C=C/C(=O)O)O2)[C@H](O)[C@H](O)C1(C)C` (stereo not given in full) showed an MIC of 6.3 µg/mL (≈ 9.55 µM).
Under `C/C=C\C=C\[C@@H]1O[C@](O)([C@H](CO[C@H]2C[C@H](OC)[C@H](O[C@@H]3C[C@@H](OC)[C@@H](O[C@H]4C[C@H](OC)[C@H](O)[C@H](C)O4)[C@H](C)O3)[C@H](C)O2)C(=O)NC/C=C/C=C(\C)C(OC)C(C)C2CC(O)C(/C=C/C=C/C=C/C(=O)O)O2)[C@H](OC(=O)Cc2ccccc2)[C@H](O)C1(C)C` (stereo not given in full) stands 0.4 µg/mL (≈ 0.326 µM).
The compound `C/C=C\C=C\[C@@H]1O[C@](O)([C@H](CO[C@H]2C[C@H](O)[C@H](O)[C@H](C)O2)C(=O)NC/C=C/C=C(\C)C(OC)C(C)C2CC(O)C(/C=C/C=C/C=C/C(=O)O)O2)[C@H](O)[C@H](OC(=O)Cc2ccccc2)C1(C)C` (stereo not given in full) yielded an MIC of 50 µg/mL (≈ 54.1 µM).
As for `C/C=C\C=C\[C@@H]1O[C@](O)([C@H](CO[C@@H]2O[C@@H](C)[C@@H](C)[C@@H](O[C@@H]3C[C@@H](OC)[C@@H](O)[C@H](C)O3)[C@H]2OC)C(=O)NC/C=C/C=C(\C)C(OC)C(C)C2CC(O)C(/C=C/C=C/C=C/C(=O)O)O2)C[C@H](O)C1(C)C` (stereo not given in full), the MIC stood at 12.6 µg/mL (≈ 13.1 µM).
`C/C=C\C=C\[C@@H]1O[C@](O)([C@@H](CO[C@H]2C[C@H](OC)[C@H](O[C@@H]3C[C@@H](OC)[C@@H](O[C@H]4C[C@H](OC)[C@H](O)[C@H](C)O4)[C@H](C)O3)[C@H](C)O2)C(=O)NC/C=C/C=C(\C)C(OC)C(C)C2CC(O)C(/C=C/C=C/C=C/C(=O)O)O2)C[C@H](O)C1(C)C` (stereo not given in full) yielded an MIC of 6.3 µg/mL (≈ 5.77 µM). This MIC is about 2-fold lower than that of the compound before.
Under `C/C=C\C=C\[C@@H]1O[C@](O)([C@H](CO[C@H]2C[C@H](O)[C@H](O)[C@H](C)O2)C(=O)NC/C=C/C=C(\C)C(OC)C(C)C2CC(O)C(/C=C/C=C/C=C/C(=O)O)O2)[C@H](O)[C@H](O)C1(C)C` (stereo not given in full) stands 100 µg/mL (≈ 124 µM).
